The supplement of paper PMC10307832

What was measured:
Test in all cases: relative viability (nuclei count vs DMSO), 5 days (fraction); higher = more cells survive
RAF265 + Pemetrexed = compound: Cn1c(Nc2ccc(C(F)(F)F)cc2)nc2cc(Oc3ccnc(-c4ncc(C(F)(F)F)[nH]4)c3)ccc21 [RAF265] + Nc1nc2[nH]cc(CCc3ccc(C(=O)N[C@@H](CCC(=O)O)C(=O)O)cc3)c2c(=O)[nH]1 [Pemetrexed] (partner 0.2 µM)
In short: (§1)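 Lung cancer cell lines in 1536-well plates were dosed by pin tool the day after seeding, either with one drug alone or with a fixed anchor-drug dose plus five library-drug doses (not always all listed) in √10 steps. After 5 days, cells were fixed and their nuclei stained in one step (final 0.05% Triton X-100, 1% formaldehyde, 1 ug/ml Hoechst), then counted on 4× images. Relative viability is the nuclei count in treated wells divided by that in vehicle wells. Values are medians of duplicate plates.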

[1] = compound: Cc1ccc(-n2nc(C(C)(C)C)cc2NC(=O)Nc2ccc(OCCN3CCOCC3)c3ccccc23)cc1 [Doramapimod] + CC(=O)c1c(C)c2cnc(Nc3ccc(N4CCNCC4)cn3)nc2n(C2CCCC2)c1=O [Palbociclib] (partner 0.5 µM)
In short: as §1

IPA-3 + Linsitinib = compound: C1=CC=C2C(=C1)C=CC(=C2SSC3=C(C=CC4=CC=CC=C43)O)O [IPA-3] + C[C@]1(O)C[C@@H](c2nc(-c3ccc4ccc(-c5ccccc5)nc4c3)c3c(N)nccn32)C1 [Linsitinib] (partner 1 µM)
In short: as §1

IPA-3 + Bortezomib = compound: C1=CC=C2C(=C1)C=CC(=C2SSC3=C(C=CC4=CC=CC=C43)O)O [IPA-3] + CC(C)C[C@H](NC(=O)[C@H](Cc1ccccc1)NC(=O)c1cnccn1)B(O)O [Bortezomib] (partner 0.002 µM)
In short: as §1

Cell Line | relative viability (RAF265 + Pemetrexed; first compound 0.01 µM) | relative viability (RAF265 + Pemetrexed; first compound 0.03162 µM) | relative viability (RAF265 + Pemetrexed; first compound 0.1 µM) | relative viability (RAF265 + Pemetrexed; first compound 0.3162 µM) | relative viability (RAF265 + Pemetrexed; first compound 1 µM) | relative viability ([1]; first compound 0.02 µM) | relative viability ([1]; first compound 0.06325 µM) | relative viability ([1]; first compound 0.2 µM) | relative viability ([1]; first compound 0.6325 µM) | relative viability ([1]; first compound 2 µM) | relative viability (IPA-3 + Linsitinib; first compound 0.2 µM) | relative viability (IPA-3 + Linsitinib; first compound 0.6325 µM) | relative viability (IPA-3 + Linsitinib; first compound 2 µM) | relative viability (IPA-3 + Linsitinib; first compound 6.325 µM) | relative viability (IPA-3 + Linsitinib; first compound 20 µM) | relative viability (IPA-3 + Bortezomib; first compound 0.2 µM) | relative viability (IPA-3 + Bortezomib; first compound 0.6325 µM) | relative viability (IPA-3 + Bortezomib; first compound 2 µM) | relative viability (IPA-3 + Bortezomib; first compound 6.325 µM) | relative viability (IPA-3 + Bortezomib; first compound 20 µM)
NCI-H2405 | 1.14 | 0.922 | 0.91 | 0.662 | 0.516 | 0.531 | 0.487 | 0.505 | 0.575 | 0.495 | 0.953 | 0.923 | 0.936 | 0.912 | 1.03 | 1.02 | 0.944 | 1.02 | 0.963 | 1.02
LCLC-103H | 0.496 | 0.423 | 0.476 | 0.459 | 0.429 | 0.43 | 0.396 | 0.432 | 0.42 | 0.439 | 1.1 | 1.07 | 1.01 | 1.1 | 1.16 | 1.13 | 1.06 | 1.17 | 1.17 | 1.18
NCI-H460 | 0.0601 | 0.0679 | 0.0652 | 0.0628 | 0.0612 | 0.197 | 0.195 | 0.208 | 0.279 | 0.141 | 1.69 | 0.603 | 0.968 | 0.711 | 0.771 | 1.64 | 1 | 1.24 | 1.07 | 1.05
NCI-H1755 | 0.771 | 0.361 | 0.503 | 0.519 | 0.497 | 0.478 | 0.484 | 0.444 | 0.416 | 0.418 | 1.03 | 0.94 | 0.981 | 0.984 | 1.04 | 1.02 | 0.905 | 0.946 | 0.997 | 1.08
NCI-H1734 | 0.386 | 0.43 | 0.469 | 0.507 | 0.417 | 0.204 | 0.308 | 0.314 | 0.299 | 0.27 | 0.995 | 0.849 | 0.884 | 0.92 | 1.07 | 0.973 | 0.812 | 1.03 | 0.995 | 0.87
EPLC-272H | 0.327 | 0.319 | 0.406 | 0.213 | 0.177 | 0.356 | 0.342 | 0.345 | – | 0.286 | 1.16 | 1.13 | 1.22 | 1.14 | 1.41 | 0.87 | 0.95 | 0.816 | 0.861 | 1.13
NCI-H2126 | 0.703 | 0.669 | 0.65 | 0.605 | 0.554 | 0.378 | 0.352 | 0.373 | 0.336 | 0.326 | 0.74 | 0.659 | 0.7 | 0.768 | 0.812 | 1.19 | 1.11 | 1.13 | 1.11 | 1.19
